Patent publication US8030499B2, “1,3-dihydro-2H-indole-2-one compound and pyrrolidine-2-one compound fused with aromatic heterocycle” (Taisho Pharmaceutical Co., Ltd., priority 2005, dated 2011)
Structures can show the parent of a compound that is named as a salt.

Experiments:
human V1b receptor = target: T1, human V1b receptor (Homo sapiens, UniProt P47901); test: V1b receptor binding assay ([3H](Arg8)-vasopressin, crude membranes of CHO cells); details: for IC50: receptor binding test, human V1b, CHO cell membranes; for inhibition at 0.1 µM: 0.1 μmol/L test drug, V1b receptor binding assay, read-out: Rate of inhibition (V1b: % of inhibition)
T1 construct: expressed in transfected cells; host or cells: CHO cells
T1 sequence (P47901 1-424): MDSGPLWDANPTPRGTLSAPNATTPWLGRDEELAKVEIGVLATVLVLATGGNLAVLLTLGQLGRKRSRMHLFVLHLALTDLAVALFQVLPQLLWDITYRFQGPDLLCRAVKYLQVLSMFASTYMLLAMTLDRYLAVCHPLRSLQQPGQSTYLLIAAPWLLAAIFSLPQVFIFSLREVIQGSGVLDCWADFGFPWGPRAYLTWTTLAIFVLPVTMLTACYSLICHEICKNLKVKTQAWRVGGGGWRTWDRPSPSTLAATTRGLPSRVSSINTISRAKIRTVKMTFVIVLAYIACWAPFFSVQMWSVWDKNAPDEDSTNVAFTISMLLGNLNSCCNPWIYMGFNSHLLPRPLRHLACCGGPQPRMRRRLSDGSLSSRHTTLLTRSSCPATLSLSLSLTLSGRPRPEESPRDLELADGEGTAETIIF
Protocol: (§1) A summary of the methods is given below.
(§2) Each obtained homogenate was centrifuged for 20 minutes at 50,000×g and 4° C., the sediment was resuspended in a 50 mmol/L Tris hydrochloric acid buffer solution (pH7.4, containing 10 mmol/L magnesium chloride and 0.1% bovine serum albumin), which served as a crude membrane preparation. This crude membrane preparation was added with [^3H] (Arg^8) vasopressin (final concentration: 0.1 nmol/L to 0.4 nmol/L), and each test drug (final concentration: 0.1 nmol/L to lμmol/L or 0.01 nmol/L to 0.1 μmol/L) to 22° C. for 90 minutes. After the end of the reaction, the reaction solution was filtrated using a GF/C glass fiber filter, which had been presoaked in 0.3% polyethyleneimine for two hours. After the GF/C glass fiber filter was dried sufficiently, scintillator was added, and the radioactivity on the filter was measured using a liquid scintillation counter. Binding of [^3H] (Arg^8)-vasopressin in the presence of (Arg^8)-vasopressin, in the amounts of 0.1 μmol/L in the V1b receptor binding assay and 5 μmol/L in the V1a and V2 receptor binding assay, were taken as non-specific binding, and the value obtained by subtracting non-specific binding from the total binding in the absence (Arg^8)-vasopressin served as specific binding.
In addition, regarding the V1b receptor binding assay, the value obtained by, subtracting the amount of binding in the presence of 0.1 μmol/L test drug from the total amount of binding, divided by the amount of specific binding, served as the rate of inhibition (% of inhibition) of the test drug at the concentration tested.

human V1a receptor = target: T2, human V1a receptor (Homo sapiens, UniProt P37288); test: V1a receptor binding assay ([3H](Arg8)-vasopressin, crude membranes of 293FT cells); details: receptor binding test, 293FT cell membranes
T2 construct: expressed in transfected cells; host or cells: 293FT cells
Protocol: as §1, §2

human V2 receptor = target: T3, human V2 receptor (Homo sapiens, UniProt P30518); test: V2 receptor binding assay ([3H](Arg8)-vasopressin, crude membranes of 293FT cells); details: receptor binding test, human V2, 293FT cell membranes
T3 construct: expressed in transfected cells; host or cells: 293FT cells
Protocol: as §1, §2

T2 sequence (P37288 whole entry): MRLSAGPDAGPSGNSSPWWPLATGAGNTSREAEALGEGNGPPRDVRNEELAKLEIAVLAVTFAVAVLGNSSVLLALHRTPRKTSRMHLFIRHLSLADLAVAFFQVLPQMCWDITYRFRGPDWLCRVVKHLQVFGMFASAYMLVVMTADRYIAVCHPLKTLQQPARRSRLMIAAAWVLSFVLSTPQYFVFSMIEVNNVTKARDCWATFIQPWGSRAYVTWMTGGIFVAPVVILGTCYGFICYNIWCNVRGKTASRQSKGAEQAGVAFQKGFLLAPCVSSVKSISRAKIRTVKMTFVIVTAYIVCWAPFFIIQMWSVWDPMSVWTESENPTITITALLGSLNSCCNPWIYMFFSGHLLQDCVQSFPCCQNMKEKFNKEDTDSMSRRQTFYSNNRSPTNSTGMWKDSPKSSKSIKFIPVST
T3 sequence (P30518 whole entry): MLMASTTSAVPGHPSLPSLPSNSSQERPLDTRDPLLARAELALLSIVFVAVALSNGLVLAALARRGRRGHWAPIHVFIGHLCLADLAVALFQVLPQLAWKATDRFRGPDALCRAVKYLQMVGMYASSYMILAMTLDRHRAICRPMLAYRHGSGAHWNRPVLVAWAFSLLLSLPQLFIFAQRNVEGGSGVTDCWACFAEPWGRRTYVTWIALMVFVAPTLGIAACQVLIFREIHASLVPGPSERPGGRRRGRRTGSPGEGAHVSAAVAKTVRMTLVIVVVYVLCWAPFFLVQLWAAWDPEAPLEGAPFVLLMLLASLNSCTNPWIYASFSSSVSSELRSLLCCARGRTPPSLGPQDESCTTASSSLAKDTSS

Compound | IC50 (human V1b receptor) | IC50 (human V1a receptor) | IC50 (human V2 receptor) | inhibition at 0.1 µM (human V1b receptor)
COc1ccc(S(=O)(=O)N2C(=O)C(c3cc(CCO)ccc3OC)(N3C[C@H](O)C[C@H]3C(=O)N(C)C)c3cc(Cl)ccc32)c(OC(F)(F)F)c1 (single isomer, unassigned) [Example 217] | 0.96 nM | 404 nM | 3100 nM | 
COc1ccc(S(=O)(=O)N2C(=O)C(c3cc(C)ccc3OC)(N3C[C@H](OCC(N)=O)C[C@H]3C(=O)N(C)C)c3cc(Cl)ccc32)c(OC(F)(F)F)c1 (single isomer, unassigned) [Example 147] | 1.2 nM | 1110 nM | 5650 nM | 
COc1ccc(S(=O)(=O)N2C(=O)C(c3cccnc3OC)(N3C[C@H](O)C[C@H]3C(=O)N(C)C)c3cc(Cl)ccc32)c(OC(F)F)c1 (single isomer, unassigned) [Example 170] | 0.56 nM | 65.1 nM | 4050 nM | 
CNCc1ccc(OC)c(C2(N3C[C@H](O)C[C@H]3C(=O)N(C)C)C(=O)N(S(=O)(=O)c3ccc(OC)cc3OC(F)(F)F)c3ccc(Cl)cc32)c1 (stereo partly drawn) [Example 206, (4R)-1-(5-chloro-3-{2-methoxy-5-[(methylamino)methyl]phenyl}-1-{[4-methoxy-2-(trifluoromethoxy)phenyl]sulfonyl}-2-oxo-2,3-dihydro-1H-indol-3-yl)-4-hydroxy-N,N-dimethyl-L-prolinamide] |  |  |  | 105%
COc1ccc(S(=O)(=O)N2C(=O)C(c3cc(C)ccc3OC)(N3C[C@H](OCCC(N)=O)C[C@H]3C(=O)N(C)C)c3cc(Cl)ccc32)c(OC(F)(F)F)c1 (stereo partly drawn) [Example 144, (4R)-4-(3-amino-3-oxopropoxy)-1-(5-chloro-3-(2-methoxy-5-methylphenyl)-1-{[4-methoxy-2-(trifluoromethoxy)phenyl]sulfonyl}-2-oxo-2,3-dihydro-1H-indol-3-yl)-N,N-dimethyl-L-prolinamide] |  |  |  | 95%
COc1ccc(S(=O)(=O)N2C(=O)C(c3cc(C)ccc3OC)(N3C[C@H](O)C[C@H]3C(=O)N(C)C)c3cc(Cl)cnc32)c(OC(F)(F)F)c1 (single isomer, unassigned) [Example 118] |  |  |  | 67%
COc1ccc(S(=O)(=O)N2C(=O)C(c3cc(C)ccc3OC)(N3C[C@H](OCCCO)C[C@H]3C(=O)N(C)C)c3cc(Cl)ccc32)c(OC(F)(F)F)c1 (stereo partly drawn) [Example 139, (4R)-1-(5-chloro-3-(2-methoxy-5-methylphenyl)-1-{[4-methoxy-2-(trifluoromethoxy)phenyl]sulfonyl}-2-oxo-2,3-dihydro-1H-indol-3-yl)-4-(3-hydroxypropoxy)-N,N-dimethyl-L-prolinamide] |  |  |  | 103%
COc1ccc(S(=O)(=O)N2C(=O)C(c3cc(C)ccc3OC)(N3C[C@H](OCC#N)C[C@H]3C(=O)N(C)C)c3cc(Cl)ccc32)c(OC(F)(F)F)c1 (single isomer, unassigned) [Example 146] |  |  |  | 94%
COc1ccc(S(=O)(=O)N2C(=O)C(c3cc(C)ccc3OC)(N3C[C@H](O)C[C@H]3C(=O)N(C)C)c3cc(Br)cnc32)c(OC)c1 (single isomer, unassigned) [Example 121] |  |  |  | 47%
COc1ccc(C)cc1C1(N2C[C@H](O)C[C@H]2C(=O)N(C)C)C(=O)N(S(=O)(=O)c2ccc(OC)c(OC)c2OC)c2ccc(Cl)cc21 (single isomer, unassigned) [Example 176] |  |  |  | 97%
COc1ccc(S(=O)(=O)N2C(=O)C(c3cc(C)ccc3OC)(N3C[C@H](OC(C)=O)C[C@H]3C(=O)N(C)C)c3cc(Cl)ccc32)c(OC(F)(F)F)c1 (single isomer, unassigned) [Example 137] |  |  |  | 96%
COc1ccc(S(=O)(=O)N2C(=O)C(CC(=O)N3CCN(c4ccncc4)CC3)(c3ccccc3OC)c3cc(Cl)ccc32)c(OC(F)(F)F)c1 (centres unmarked) [Example 43, 5-chloro-3-(2-methoxyphenyl)-1-{[4-methoxy-2-(trifluoromethoxy)phenyl]sulfonyl}-3-[2-oxo-2-(4-pyridin-4-ylpiperazin-1-yl)ethyl]-1,3-dihydro-2H-indol-2-one hydrochloride 1.5 hydrate] |  |  |  | 92%
COc1ccc(S(=O)(=O)N2C(=O)C(c3cc(CC#N)ccc3OC)(N3C[C@H](O)C[C@H]3C(=O)N(C)C)c3cc(Cl)ccc32)c(OC(F)(F)F)c1 (single isomer, unassigned) [Example 236] |  |  |  | 93%
COc1ccc(S(=O)(=O)N2C(=O)C(c3cc(C)ccc3OC)(N3C[C@H](OCC(=O)O)C[C@H]3C(=O)N(C)C)c3cc(Cl)ccc32)c(OC(F)(F)F)c1 (stereo partly drawn) [Example 148, ({(3R,5S)-1-(5-chloro-3-(2-methoxy-5-methylphenyl)-1-{[4-methoxy-2-(trifluoromethoxy)phenyl]sulfonyl}-2-oxo-2,3-dihydro-1H-indol-3-yl)-5-[(dimethylamino)carbonyl]pyrrolidin-3-yl}oxy)acetic acid] |  |  |  | 85%

Now from value to compound:

IC50 (human V1b receptor) | IC50 (human V1a receptor) | IC50 (human V2 receptor) | inhibition at 0.1 µM (human V1b receptor) | Compound
16 nM | 2180 nM | > 10000 nM |  | COc1ccc(S(=O)(=O)N2C(=O)C(c3ccccc3OC)(N3CCC[C@H]3C(=O)N(C)C)c3cc(Cl)ccc32)c(OC(F)(F)F)c1 (single isomer, unassigned) [Example 5, 1-(5-chloro-3-(2-methoxyphenyl)-1-{[4-methoxy-2-(trifluoromethoxy)phenyl]sulfonyl}-2-oxo-2,3-dihydro-1H-indol-3-yl)-N,N-dimethyl-L-prolinamide]
7.1 nM | 3760 nM | > 10000 nM |  | COc1ccc(S(=O)(=O)N2C(=O)C(c3ccccc3OC)(N3CCOC[C@H]3C(=O)N(C)C)c3cc(Cl)ccc32)c(OC(F)(F)F)c1 (single isomer, unassigned) [Example 41]
5.2 nM | 953 nM | > 10000 nM |  | COc1ccc(S(=O)(=O)N2C(=O)C(c3ccccc3OC)(N3CCCC[C@H]3C(=O)N(C)C)c3cc(Cl)ccc32)c(OC(F)(F)F)c1 (single isomer, unassigned) [Example 31]
2.6 nM | 743 nM | 4010 nM |  | COc1ccc(S(=O)(=O)N2C(=O)C(c3ccccc3OC)(N3C[C@H](O)C[C@H]3C(=O)N(C)C)c3cc(Cl)ccc32)c(OC(F)(F)F)c1 (single isomer, unassigned) [Example 2]
2.3 nM | 504 nM | 3370 nM |  | COc1ccc(S(=O)(=O)N2C(=O)C(c3cc(C)ccc3OC)(N3C[C@H](O)C[C@H]3C(=O)N(C)C)c3cc(Cl)ccc32)c(OC(F)(F)F)c1 (single isomer, unassigned) [Example 103]
 |  |  | 98% | COc1ccc(S(=O)(=O)N2C(=O)C(c3cc(CN4CCCC4)ccc3OC)(N3C[C@H](O)C[C@H]3C(=O)N(C)C)c3cc(Cl)ccc32)c(OC(F)(F)F)c1 (single isomer, unassigned) [Example 199]
 |  |  | 66% | COc1ccc(S(=O)(=O)N2C(=O)C(c3ccccc3OC)(N3c4ccccc4C[C@H]3C(=O)N(C)C)c3cc(Cl)ccc32)c(OC(F)(F)F)c1 (stereo partly drawn) [Example 40, (2S)-5′-chloro-3′-(2-methoxyphenyl)-1′-{[4-methoxy-2-(trifluoromethoxy)phenyl]sulfonyl}-N,N-dimethyl-2′-oxo-2,2′,3,3′-tetrahydro-1′H-1,3′-biindole-2-carboxamide]
 |  |  | 89% | COc1ccc(S(=O)(=O)N2C(=O)C(c3cc(C#N)ccc3OC)(N3C[C@H](O)C[C@H]3C(=O)N(C)C)c3cc(Cl)ccc32)c(OC(F)(F)F)c1 (single isomer, unassigned) [Example 238]
 |  |  | 73% | COc1ccc(C2(N3CCCC[C@H]3C(=O)N(C)C)C(=O)N(S(=O)(=O)c3ccc(OC)cc3OC(F)(F)F)c3ccc(C)cc32)cc1 (single isomer, unassigned) [Example 96]
 |  |  | 95% | COc1ccc(S(=O)(=O)N2C(=O)C(c3cc(OC)ccc3OC)(N3CCCC[C@H]3C(=O)N(C)C)c3cc(Cl)ccc32)c(OC(F)(F)F)c1 (single isomer, unassigned) [Example 117]
 |  |  | 97% | COc1ccc(S(=O)(=O)N2C(=O)C(c3cccc4c3OCC4)(N3CCCC[C@H]3C(=O)N(C)C)c3cc(Cl)ccc32)c(OC(F)(F)F)c1 (stereo partly drawn) [Example 90, (2S)-1-(5-chloro-3-(2,3-dihydro-1-benzofuran-7-yl)-1-{[4-methoxy-2-(trifluoromethoxy)phenyl]sulfonyl}-2-oxo-2,3-dihydro-1H-indol-3-yl)-N,N-dimethylpiperidine-2-carboxamide]
